Test results from BindingDB's records for doi:10.7270/Q2JQ0ZH4 (Burnham Center For Chemical Genomics, 2011).

The compounds below were run against T1, Mitochondrial import inner membrane translocase subunit TIM10 (Saccharomyces cerevisiae (strain ATCC 204508 / S288c), UniProt P87108) (assay: inhibitors in tim10-1 mutant yeast luminescence, dose response, counter-screen for tim23-1 inhibitor project, S. cerevisiae, uHTS hits (AID 504657)).
T1 sequence (P87108 whole entry): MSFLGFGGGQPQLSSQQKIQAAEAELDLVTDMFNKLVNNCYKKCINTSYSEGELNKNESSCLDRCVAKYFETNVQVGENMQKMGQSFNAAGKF
In the case of O=C1c2ccccc2-c2n[nH]c3cccc1c23, the IC50 is reported as > 100 µM. COC(=N)C(C#N)N=Cc1ccccc1Cl (stereo not given) [(E)-3-amino-2-[(2-chlorophenyl)methylideneamino]-3-methoxy-2-propenenitrile] was tested, and the IC50 was > 100 µM. For Cc1ccc2nc(-n3c(O)c[nH]c3=S)sc2c1, the IC50 was > 100 µM. With C(=CN=Nc1nc2ccccc2[nH]1)Cc1ccccc1 [MLS000390936] the IC50 was > 100 µM. In the case of Oc1ccccc1C1=NNC(c2ccccc2)S1 (stereo not given) [MLS001212798], the IC50 is reported as > 100 µM.
